Results published in patent US20240245711A1, “A 19-NOR C3,3-DISUBSTITUTED C21-N-PYRAZOLYL STEROID FOR THE TREATMENT OF MAJOR DEPRESSIVE DISORDER” (Sage Therapeutics, Inc., priority 2021, published 2024).
Values joined by “and” are separate entries in the source; they are usually repeats but may differ in a detail not shown here. Identical values can stand only once.

Test system: adult subjects with Major Depressive Disorder
Experiment: Phase 3 open-label 1-year study: HAM-D total score, response and remission
Type: in vivo, human
Excerpt: Secondary Objective: To assess the need for re-treatment with Compound (1) following initial treatment in adults with MDD currently experiencing an MDE over a 1-year period, and to assess the response of initial treatment and re-treatment(s) with Compound (1) following an initial 2-week treatment period in adults with MDD currently experiencing an MDE over a 1-year period.
Secondary Endpoints: The need for re-treatment with Compound (1) as assessed by: time to first re-treatment (Kaplan-Meier curves), number of subjects achieving the requirements for re-treatment, number of re-treatment cycles for each subject, the response of initial treatment and/or re-treatment as assessed by: change from baseline in the 17-item Hamilton Rating Scale for Depression (HAM-D) total score at the end of each 14-day treatment (initial and/or re-treatment) period, HAM-D response at the end of each 14-day treatment (initial and/or re-treatment) period, defined as a ≥50% reduction in HAM-D score from baseline, HAM-D remission at the end of each 14-day treatment (initial and/or re-treatment) period, defined as HAM-D total score≤7, Clinical Global Impression-Improvement (CGI-I) response, defined as “much improved” or “very much improved”, at the end of each 14-day treatment (initial and/or re-treatment) period, change from baseline in Clinical Global Impression-Severity (CGI-S) score at the end of each 14-day treatment (initial and/or re-treatment) period.
Study Population: Subjects were 18-75 years old, diagnosed with major depressive disorder (MDD) with a MADRS total score of ≥28 and a HAM-D total score of ≥20 at Screening and Day 1 (prior to dosing).
Treatment Groups: The 30 mg and 50 mg dose groups were separated by time of enrollment. The study is comprised of two cohorts: one with Compound (1) 30 mg as a starting dose (30 mg Cohort: n=725), an initial cohort with Compound (1) 50 mg as a starting dose (50 mg Cohort: n=199). A patient receiving Compound (1) 30 mg could be dose reduced to 20 mg and patients receiving Compound (1) 50 mg could be dose reduced to 40 mg (based on tolerability). In all cohorts, Compound (1) is self-administered by patients as an oral therapy once nightly with food for 14 days.
Eligible subjects were given Compound (1)—to be taken at home in the evening with meal.
The cohorts pertaining to the different doses that the subjects received were defined as following: • 50 mg cohort: This cohort includes subjects who have initiated treatment with 50 mg and received re-treatment with 50 mg only. • 30 mg cohort: This cohort includes subjects who have initiated treatment with 30 mg regardless of the dose they have received in re-treatments. • Low dose cohort: This cohort includes subjects who have initiated treatment with 30 mg and received re-treatment with 30 mg only. • Dose switch cohort: This cohort includes subjects who have received initial treatment with 30 mg and at least one subsequent re-treatment with 50 mg. • Study Period X: starts on the date of the first dose of Compound (1) in cycle X and goes up to one day prior to the first dose of the next cycle. In some embodiments, X is any number from 1 to 5. • Treatment Period X: starts on the date of the first dose of Compound (1) in cycle X and goes up to one day after the last dose in cycle X. In some embodiments, X is any number from 1 to 5. • Treatment Cycle X: starts on the date of the first dose of Compound (1) in cycle X and goes up to 14 days after the last dose in cycle X. The treatment cycles may be denoted as C1-C5. • Observation period X: starts the day after Treatment Cycle X ends and goes up to one day prior to the start of next treatment cycle. In some embodiments, X is any number from 1 to 5.
Analysis Sets: The safety set was defined as all subjects who were administered study drug. The period-specific safety set includes subjects in the safety set who were administered study drug in the corresponding treatment cycle. […]

[1] = Study Period 1, safety set, 30 mg Cohort (N = 725), Day 126
[2] = Study Period 1, safety set, 50 mg Cohort (N = 199), Day 8
[3] = Study Period 1, safety set, 50 mg Cohort (N = 199), Day 15
[4] = Study Period 1, safety set, 50 mg Cohort (N = 199), Day 28
[5] = Study Period 1, safety set, 50 mg Cohort (N = 199), Day 70
[6] = Study Period 1, safety set, 50 mg Cohort (N = 199), Day 126
[7] = baseline HAM-D score ≥24, Study Period 1, 30 mg Cohort (N = 458), Day 8
[8] = baseline HAM-D score ≥24, Study Period 1, 30 mg Cohort (N = 458), Day 15
[9] = baseline HAM-D score ≥24, Study Period 1, 30 mg Cohort (N = 458), Day 28
[10] = baseline HAM-D score ≥24, Study Period 1, 30 mg Cohort (N = 458), Day 70
[11] = baseline HAM-D score ≥24, Study Period 1, 30 mg Cohort (N = 458), Day 126
[12] = baseline HAM-D score ≥24, Study Period 1, 50 mg Cohort (N = 127), Day 8
[13] = baseline HAM-D score ≥24, Study Period 1, 50 mg Cohort (N = 127), Day 15

**Q.** `C[C@@]1(O)CC[C@H]2[C@H](CC[C@@H]3[C@@H]2CC[C@]2(C)[C@@H](C(=O)Cn4cc(C#N)cn4)CC[C@@H]32)C1` [Compound (1), 1-(2-((3R,5R,8R,9R,10S,13S,14S,17S)-3-hydroxy-3,13-dimethylhexadecahydro-1H-cyclopenta[a]phenanthren-17-yl)-2-oxoethyl)-1H-pyrazole-4-carbonitrile] was tested. Which “HAM-D Response” value [1] did it give?
**A.** Its value is 144/203 (70.9%).

**Q.** What about the “HAM-D total score, Mean % CFB ± SD” value [1] of the same compound?
**A.** Its value is −62.3 ± 30.36%.

**Q.** And the “HAM-D total score, Mean CFB ± SD” value [1]?
**A.** Its value is −15.7 ± 8.07.

**Q.** What about the “HAM-D Remission” value [2] of the same compound?
**A.** Its value is 37/193 (19.2%).

**Q.** What about the “HAM-D Response” value [2] of the same compound?
**A.** Its value is 97/193 (50.3%).

**Q.** And the “HAM-D total score, Mean % CFB ± SD” value [2]?
**A.** Its value is −49.2 ± 22.41%.

**Q.** And the “HAM-D total score, Mean CFB ± SD” value [2]?
**A.** Its value is −12.3 ± 5.79.

**Q.** And the “HAM-D total score, Mean % CFB ± SD” value [3]?
**A.** Its value is −63.6 ± 22.70%.

**Q.** What about the “HAM-D total score, Mean CFB ± SD” value [3] of the same compound?
**A.** Its value is −16±6.0 and −16.0±6.04.

**Q.** What about the “HAM-D Remission” value [4] of the same compound?
**A.** Its value is 72/191 (37.7%).

**Q.** What about the “HAM-D Response” value [4] of the same compound?
**A.** Its value is 120/191 (62.8%).

**Q.** And the “HAM-D total score, Mean % CFB ± SD” value [4]?
**A.** Its value is −58.3 ± 26.05%.

**Q.** And the “HAM-D total score, Mean CFB ± SD” value [4]?
**A.** The value was −14.6 ± 6.75.

**Q.** What about the “HAM-D Remission” value [5] of the same compound?
**A.** Its value is 41/118 (34.7%).

**Q.** What about the “HAM-D Response” value [5] of the same compound?
**A.** The value was 69/118 (58.5%).

**Q.** What about the “HAM-D total score, Mean % CFB ± SD” value [5] of the same compound?
**A.** The value was −53.7 ± 28.40%.

**Q.** What about the “HAM-D total score, Mean CFB ± SD” value [5] of the same compound?
**A.** The value was −13.6 ± 7.45.

**Q.** What about the “HAM-D Remission” value [6] of the same compound?
**A.** Its value is 19/30 (63.3%).

**Q.** What about the “HAM-D Response” value [6] of the same compound?
**A.** Its value is 22/30 (73.3%).

**Q.** What about the “HAM-D total score, Mean % CFB ± SD” value [6] of the same compound?
**A.** Its value is −65.2 ± 33.96%.

**Q.** What about the “HAM-D total score, Mean CFB ± SD” value [6] of the same compound?
**A.** Its value is −16.3 ± 9.06.

**Q.** What about the “HAM-D Remission” value [7] of the same compound?
**A.** Its value is 70/446 (15.7%).

**Q.** What about the “HAM-D Response” value [7] of the same compound?
**A.** Its value is 192/446 (43.0%).

**Q.** What about the “HAM-D total score, Mean % CFB ± SD” value [7] of the same compound?
**A.** The value was −43.3 ± 25.63%.

**Q.** And the “HAM-D total score, Mean CFB ± SD” value [7]?
**A.** Its value is −12.0 ± 7.17.

**Q.** What about the “HAM-D Remission” value [8] of the same compound?
**A.** Its value is 164 (37.9%) and 164/433 (37.9%).

**Q.** And the “HAM-D Response” value [8]?
**A.** Its value is 319 (73.7%) and 319/433 (73.7%).

**Q.** What about the “HAM-D total score, Mean % CFB ± SD” value [8] of the same compound?
**A.** The value was −60.9 ± 25.50%.

**Q.** And the “HAM-D total score, Mean CFB ± SD” value [8]?
**A.** Its value is −16.9 ± 7.34.

**Q.** What about the “HAM-D Remission” value [9] of the same compound?
**A.** The value was 132/431 (30.6%).

**Q.** And the “HAM-D Response” value [9]?
**A.** The value was 250/431 (58.0%).

**Q.** What about the “HAM-D total score, Mean % CFB ± SD” value [9] of the same compound?
**A.** Its value is −53.9 ± 28.59%.

**Q.** What about the “HAM-D total score, Mean CFB ± SD” value [9] of the same compound?
**A.** Its value is −15.0 ± 8.27.

**Q.** And the “HAM-D Remission” value [10]?
**A.** The value was 70/247 (28.3%).

**Q.** And the “HAM-D Response” value [10]?
**A.** The value was 125/247 (50.6%).

**Q.** And the “HAM-D total score, Mean % CFB ± SD” value [10]?
**A.** The value was −49.2 ± 32.86%.

**Q.** What about the “HAM-D total score, Mean CFB ± SD” value [10] of the same compound?
**A.** The value was −13.8 ± 9.39.

**Q.** And the “HAM-D Remission” value [11]?
**A.** Its value is 58/120 (48.3%).

**Q.** What about the “HAM-D Response” value [11] of the same compound?
**A.** The value was 90/120 (75.0%).

**Q.** And the “HAM-D total score, Mean % CFB ± SD” value [11]?
**A.** The value was −66.0 ± 28.29%.

**Q.** What about the “HAM-D total score, Mean CFB ± SD” value [11] of the same compound?
**A.** Its value is −18.2 ± 7.88.

**Q.** And the “HAM-D Remission” value [12]?
**A.** Its value is 18/122 (14.8%).

**Q.** What about the “HAM-D Response” value [12] of the same compound?
**A.** The value was 61/122 (50.0%).

**Q.** What about the “HAM-D total score, Mean % CFB ± SD” value [12] of the same compound?
**A.** Its value is −49.3 ± 21.32%.

**Q.** What about the “HAM-D total score, Mean CFB ± SD” value [12] of the same compound?
**A.** The value was −13.3 ± 5.87.

**Q.** And the “HAM-D Remission” value [13]?
**A.** The value was 44 (37.3%) and 44/118 (37.3%).

**Q.** And the “HAM-D Response” value [13]?
**A.** Its value is 94 (79.7%) and 94/118 (79.7%).

**Q.** And the “HAM-D total score, Mean % CFB ± SD” value [13]?
**A.** Its value is −64.1 ± 21.73%.

**Q.** And the “HAM-D total score, Mean CFB ± SD” value [13]?
**A.** The value was −17.4 ± 6.05.

**Q.** What about the “HAM-D Remission” value (baseline HAM-D score ≥24, Study Period 1, 50 mg Cohort (N = 127), Day 28) of the same compound?
**A.** Its value is 41/120 (34.2%).
